{
  "source": "patent US20090076044A1",
  "about": "“VEGFR INHIBITORS CONTAINING A ZINC BINDING MOIETY” (priority 2007, published 2009)",
  "type_in_all_cases": "biochemical",
  "key": {"human HER2": {"molecular_target": "T1, human HER2 (Homo sapiens, UniProt P04626)", "T1 construct": "human HER2 amino acids 679-1255; host or cells: Sf9 insect cells (baculovirus)", "T1 sequence (P04626 679-1255)": "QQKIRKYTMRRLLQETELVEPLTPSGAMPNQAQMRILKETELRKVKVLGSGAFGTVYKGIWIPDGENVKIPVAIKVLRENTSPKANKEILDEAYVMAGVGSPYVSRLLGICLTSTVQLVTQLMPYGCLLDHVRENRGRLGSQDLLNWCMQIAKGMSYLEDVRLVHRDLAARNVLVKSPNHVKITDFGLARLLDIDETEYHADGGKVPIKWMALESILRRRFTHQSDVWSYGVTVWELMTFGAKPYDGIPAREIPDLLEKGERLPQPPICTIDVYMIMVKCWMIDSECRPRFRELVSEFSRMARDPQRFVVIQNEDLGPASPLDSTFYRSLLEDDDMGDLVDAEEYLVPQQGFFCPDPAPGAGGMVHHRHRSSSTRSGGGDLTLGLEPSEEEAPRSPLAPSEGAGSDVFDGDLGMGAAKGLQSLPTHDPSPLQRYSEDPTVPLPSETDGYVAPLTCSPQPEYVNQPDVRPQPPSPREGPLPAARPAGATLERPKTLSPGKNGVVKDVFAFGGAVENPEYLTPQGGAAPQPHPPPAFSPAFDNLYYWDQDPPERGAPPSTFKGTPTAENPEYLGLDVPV", "assay": "HER2 enzymatic activity assay", "description": "(d) An In Vitro Assay which Determines the Ability of a Test Compound to Inhibit HER2 Enzymatic Activity.\n10 nM HER2 and 0.1 mg/ml polyEY were placed in the reaction buffer and 2 mM MnCl2, 1 μM ATP and 1% DMSO final were added. The reaction mixture was incubated for 2 hours at room temperature.\nPurity>90% by SDS PAGE and Coomassie blue staining. MW=91.6 kDa. Specific Activity of 40 U/mg, where one unit of activity is defined as 1 nmol phosphate incorporated into 30 ug/ml Poly (Glu:Tyr)4:1 substrate per minute at 30° C. with a final ATP concentration of 100 μM. Enzyme is in 25 mM Tris-HCl, pH 8.0, 100 mM NaCl, 0.05% Tween-20, 50% glycerol, 10 mM reduced glutathione, and 3 mM DTT."}, "human VEGFR2": {"molecular_target": "T2, human VEGFR2 (Homo sapiens, UniProt P35968)", "T2 construct": "kinase domain (amino acids 790 to end) fragment; 6xHis (N); made in house; host or cells: Sf21 insect cells (baculovirus)", "T2 sequence (P35968 790-1356 limits assumed)": "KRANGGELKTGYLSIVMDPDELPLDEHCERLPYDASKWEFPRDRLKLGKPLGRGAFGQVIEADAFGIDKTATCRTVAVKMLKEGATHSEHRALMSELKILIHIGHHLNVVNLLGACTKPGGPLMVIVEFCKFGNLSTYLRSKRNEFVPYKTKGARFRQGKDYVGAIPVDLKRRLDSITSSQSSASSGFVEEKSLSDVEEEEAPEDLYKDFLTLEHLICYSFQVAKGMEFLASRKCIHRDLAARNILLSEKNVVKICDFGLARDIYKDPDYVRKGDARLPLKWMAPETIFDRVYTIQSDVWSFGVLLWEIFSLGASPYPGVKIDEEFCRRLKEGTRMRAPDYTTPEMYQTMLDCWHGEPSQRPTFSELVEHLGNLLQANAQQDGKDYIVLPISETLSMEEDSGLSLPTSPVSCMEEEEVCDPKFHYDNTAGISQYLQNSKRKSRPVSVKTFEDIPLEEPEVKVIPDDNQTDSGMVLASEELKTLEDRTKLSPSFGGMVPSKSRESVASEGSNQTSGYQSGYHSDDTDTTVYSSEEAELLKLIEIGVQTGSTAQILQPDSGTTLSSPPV", "assay": "VEGFR2/KDR radioisotope kinase assay", "description": "(a) An In Vitro Assay which-Determines the Ability of a Test Compound to Inhibit a Receptor Tyrosine Kinase.\nThe ability of compounds to inhibit receptor kinase (VEGFR2 and PDGFR-beta) activity was assayed using standard radioisotope assay for kinase. […] The proteins were purified using Ni2+/NTA agarose affinity column to purity\n>85% as determined by coomassie blue-stained SDS-PAGE gel. For VEGFR2/KDR assay, p33 ATP tracers were incubated with purified recombinant VEGFR2 kinase to monitor the enzyme activity. In this assay, reactions were carried out in the presence of 0.1 mg/ml VEGFR2 kinase and 0.33 mg/ml myelin basic protein. The reaction was carried out at 30° C. for 120 minutes in a final assay condition contained 50 mM Tris-HCl, pH 7.5, 300 mM NaCl, 0.1 mM EGTA, 0.03% Brij 35, 270 mM sucrose, 1 mM benzamidine, 0.2 mM PMSF, 0.1% 2-mercaptoethanol and 100 μM ATP. An equal volume of 25% TCA was added to stop the reaction and precipitate the labeled proteins. Precipitated proteins were trapped onto glass fiber B filterplates and excess unlabeled p33 ATP was washed off. The plates were allowed to air-dry prior to the addition of 30 uL/well of Packard Microscint 20. The amount of incorporated isotope was measured using a Perkin Elmer TopCount plate reader. Different concentrations of compounds were added to reaction to assess the activity of compounds to inhibit VEGFR2 kinase. IC50 was calculated using Prism software with sigmoidal dose-response curve fitting."}, "human c-Met": {"molecular_target": "T3, human c-Met (Homo sapiens, UniProt P08581)", "T3 construct": "recombinant human catalytic domain (amino acids 956-1390); His; host or cells: insect cells", "T3 sequence (P08581 956-1390)": "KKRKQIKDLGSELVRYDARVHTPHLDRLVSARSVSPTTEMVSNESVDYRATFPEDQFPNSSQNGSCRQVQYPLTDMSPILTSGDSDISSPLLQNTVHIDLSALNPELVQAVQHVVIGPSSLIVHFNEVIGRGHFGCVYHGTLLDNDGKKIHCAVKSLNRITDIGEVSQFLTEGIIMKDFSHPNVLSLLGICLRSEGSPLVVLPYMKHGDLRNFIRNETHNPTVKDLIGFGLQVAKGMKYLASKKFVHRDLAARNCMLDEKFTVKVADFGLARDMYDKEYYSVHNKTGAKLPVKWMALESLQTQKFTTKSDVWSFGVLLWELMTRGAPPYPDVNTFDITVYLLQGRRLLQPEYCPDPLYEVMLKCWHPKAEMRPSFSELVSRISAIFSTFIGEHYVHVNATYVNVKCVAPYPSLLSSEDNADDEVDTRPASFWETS", "assay": "c-Met radioisotope kinase assay", "conditions": "1 μM ATP", "description": "(c) An In Vitro Assay which Determines the Ability of a Test Compound to Inhibit c-MET Enzymatic Activity.\nFor c-Met assay, p33 ATP tracers were incubated with purified recombinant c-Met kinase to monitor the enzyme activity. C-Met (Accession number: GenBank NP_000236.2) is characterized as follows: recombinant human catalytic domain (amino acids 956-1390) with histidine-tagged, expressed in insect cells. Purity≧90% by SDS-PAGE and Coomassie blue staining. MW=53.7 kDa. Specific Activity of 373 nmole of phosphate transferred to myelin basic protein (MBP) per minute per mg of total protein at 30° C. Activity determined at a final protein concentration of 2 μg/mL. Enzyme at 0.41 mg/ml in 20 mM Tris (pH 7.5), 100 mM NaCl, 0.5 mM EDTA, 0.05% Triton X-100, 2 mM DTT, 50% Glycerol. In this assay, reactions were carried out in the presence of 10 nM c-Met kinase and 5 uM myelin basic protein. The reaction was carried out at 30° C. for 120 minutes in a final assay condition contained 20 mM HEPES, pH 7.5, 10 mM MgCl2, 1 mM EGTA, 0.02% Brij 35, 0.02 mg/ml BSA, 0.1 mM Na3VO4, 2 mM DTT and 1 μM ATP. An equal volume of 25% TCA was added to stop the reaction and precipitate the labeled proteins. Precipitated proteins were trapped onto glass fiber B filterplates and excess unlabeled p33 ATP was washed off. The plates were allowed to air-dry prior to the addition of 30 uL/well of Packard Microscint 20. The amount of incorporated isotope was measured using a Perkin Elmer TopCount plate reader. Different concentrations of compounds were added to reaction to assess the activity of compounds to inhibit c-Met kinase. IC50 was calculated using Prism software with sigmoidal dose-response curve fitting."}, "[1]": {"conditions": "1 μM ATP, read-out: HER2/ErbB IC50"}, "[2]": {"conditions": "100 μM ATP, read-out: VEGFR2 IC50"}},
  "note": "Read-outs that look alike come from different tables or passages of the source.",
  "data": [
    {"smiles": "COc1cc2ncnc(Nc3ccc4occc4c3)c2cc1OCCCCCCC(=O)NO", "note": "[Compound 2, 7-(4-(benzofuran-5-ylamino)-7-methoxyquinazolin-6-yloxy)-N-hydroxyheptanamide]", "values": [
      {"measurement": "IC50", "setting": "human HER2; [1]", "result": "< 100", "unit": "nM"},
      {"measurement": "IC50", "setting": "human VEGFR2; [2]", "result": "1000 to 10000", "unit": "nM"}
    ]},
    {"smiles": "COc1cc2c(Oc3ccc4[nH]c(C)cc4c3F)ncnc2cc1OCCCCCC(=O)NO", "note": "[Compound 10, 6-(4-(4-fluoro-2-methyl-1H-indol-5-yloxy)-6-methoxyquinazolin-7-yloxy)-N-hydroxyhexanamide]", "values": [
      {"measurement": "IC50", "setting": "human HER2; [1]", "result": "100 to 1000", "unit": "nM"},
      {"measurement": "IC50", "setting": "human VEGFR2; [2]", "result": "< 100", "unit": "nM"},
      {"measurement": "IC50", "setting": "human c-Met", "result": "1000 to 10000", "unit": "nM"}
    ]},
    {"smiles": "COc1cc2c(Oc3ccc4[nH]c(C)cc4c3F)ncnc2cc1OCCCCCCC(=O)NO", "note": "[Compound 11, 7-(4-(4-fluoro-2-methyl-1H-indol-5-yloxy)-6-methoxyquinazolin-7-yloxy)-N-hydroxyheptanamide]", "values": [
      {"measurement": "IC50", "setting": "human HER2", "result": "1000 to 10000", "unit": "nM"},
      {"measurement": "IC50", "setting": "human VEGFR2", "result": "< 100", "unit": "nM"},
      {"measurement": "IC50", "setting": "human c-Met", "result": "1000 to 10000", "unit": "nM"}
    ]},
    {"smiles": "COc1cc2c(Nc3ccc4[nH]c(C)cc4c3F)ncnc2cc1OCCCCCC(=O)NO", "note": "[Compound 13, 6-(4-(4-fluoro-2-methyl-1H-indol-5-ylamino)-6-methoxyquinazolin-7-yloxy)-N-hydroxyhexanamide]", "values": [
      {"measurement": "IC50", "setting": "human HER2; [1]", "result": "< 100", "unit": "nM"},
      {"measurement": "IC50", "setting": "human VEGFR2; [2]", "result": "< 100", "unit": "nM"}
    ]},
    {"smiles": "COc1cc2c(Nc3ccc4[nH]c(C)cc4c3F)ncnc2cc1OCCCCCCC(=O)NO", "note": "[Compound 14, 7-(4-(4-fluoro-2-methyl-1H-indol-5-ylamino)-6-methoxy-quinazolin-7-yloxy)-N-hydroxyheptanamide]", "values": [
      {"measurement": "IC50", "setting": "human HER2; [1]", "result": "100 to 1000", "unit": "nM"},
      {"measurement": "IC50", "setting": "human VEGFR2; [2]", "result": "< 100", "unit": "nM"},
      {"measurement": "IC50", "setting": "human c-Met", "result": "1000 to 10000", "unit": "nM"}
    ]},
    {"smiles": "Cc1cc2c(F)c(Oc3ncnc4cc(OCCCN5CCCC5)c(OCCCCCC(=O)NO)cc34)ccc2[nH]1", "note": "[Compound 16, 6-(4-(4-fluoro-2-methyl-1H-indol-5-yloxy)-7-(3-(pyrrolidin-1-yl)propoxy)quinazolin-6-yloxy)-N-hydroxyhexanamide]", "values": [
      {"measurement": "IC50", "setting": "human HER2; [1]", "result": "< 100", "unit": "nM"},
      {"measurement": "IC50", "setting": "human VEGFR2; [2]", "result": "< 100", "unit": "nM"},
      {"measurement": "IC50", "setting": "human c-Met", "result": "100 to 1000", "unit": "nM"}
    ]},
    {"smiles": "Cc1cc2c(F)c(Oc3ncnc4cc(OCCCN5CCCC5)c(OCCCCCCC(=O)NO)cc34)ccc2[nH]1", "note": "[Compound 17]", "values": [
      {"measurement": "IC50", "setting": "human HER2; [1]", "result": "100 to 1000", "unit": "nM"},
      {"measurement": "IC50", "setting": "human VEGFR2; [2]", "result": "< 100", "unit": "nM"},
      {"measurement": "IC50", "setting": "human c-Met", "result": "< 100", "unit": "nM"}
    ]},
    {"smiles": "Cc1cc2c(F)c(Nc3ncnc4cc(OCCCN5CCCC5)c(OCCCCC(=O)NO)cc34)ccc2[nH]1", "note": "[Compound 18, 5-(4-(4-fluoro-2-methyl-1H-indol-5-ylamino)-7-(3-(pyrrolidin-1-yl)propoxy)quinazolin-6-yloxy)-N-hydroxypentanamide]", "values": [
      {"measurement": "IC50", "setting": "human HER2; [1]", "result": "< 100", "unit": "nM"},
      {"measurement": "IC50", "setting": "human VEGFR2; [2]", "result": "< 100", "unit": "nM"}
    ]},
    {"smiles": "Cc1cc2c(F)c(Nc3ncnc4cc(OCCCN5CCCC5)c(OCCCCCC(=O)NO)cc34)ccc2[nH]1", "note": "[Compound 19, 6-(4-(4-Fluoro-2-methyl-1H-indol-5-ylamino)-7-(3-(pyrrolidin-1-yl)propoxy)quinazolin-6-yloxy)-N-hydroxyhexanamide]", "values": [
      {"measurement": "IC50", "setting": "human HER2; [1]", "result": "< 100", "unit": "nM"},
      {"measurement": "IC50", "setting": "human VEGFR2; [2]", "result": "< 100", "unit": "nM"}
    ]},
    {"smiles": "Cc1cc2c(F)c(Nc3ncnc4cc(OCCCN5CCCC5)c(OCCCCCCC(=O)NO)cc34)ccc2[nH]1", "note": "[Compound 20, 7-(4-(4-Fluoro-2-methyl-1H-indol-5-ylamino)-7-(3-(pyrrolidin-1-yl)propoxy)quinazolin-6-yloxy)-N-hydroxyheptanamide]", "values": [
      {"measurement": "IC50", "setting": "human HER2; [1]", "result": "< 100", "unit": "nM"},
      {"measurement": "IC50", "setting": "human VEGFR2; [2]", "result": "< 100", "unit": "nM"},
      {"measurement": "IC50", "setting": "human c-Met", "result": "1000 to 10000", "unit": "nM"}
    ]}
  ]
}
